Experimental data from ChEMBL document CHEMBL2331227, “Khayseneganins A-H, limonoids from Khaya senegalensis” (2013).
Converted amounts (≈) assume the structure as drawn.

Assays:
Assay type in all cases: functional
[1] = test system: Staphylococcus aureus; assay: Antimicrobial activity against methicillin-resistant Staphylococcus aureus isolate 98 by two-fold dilution method
[2] = test system: Staphylococcus aureus; assay: Antimicrobial activity against methicillin-resistant Staphylococcus aureus isolate 92 by two-fold dilution method
[3] = test system: Pseudomonas aeruginosa; assay: Antimicrobial activity against Pseudomonas aeruginosa ATCC 27853 by two-fold dilution method
[4] = test system: Staphylococcus aureus; assay: Antimicrobial activity against Staphylococcus aureus ATCC 25923 by two-fold dilution method

Structure (SMILES)	MIC [1]	MIC [2]	MIC [3]	MIC [4]
COC(=O)C[C@H]1C(C)(C)[C@H](OC(C)=O)[C@@H]2C=C3[C@@H]4CC(=O)O[C@@H](c5ccoc5)[C@]4(C)CC[C@@H]3[C@@]1(C)C2=O	12.5 µg/mL (≈ 24.4 µM)	12.5 µg/mL (≈ 24.4 µM)	12.5 µg/mL (≈ 24.4 µM)	25 µg/mL (≈ 48.8 µM)
COC(=O)C[C@H]1C(C)(C)[C@H](OC(C)=O)[C@@H]2C=C3[C@H]([C@H](OC(C)=O)C[C@]4(C)[C@H]3CC(=O)O[C@H]4c3ccoc3)[C@@]1(C)C2=O [SWIETMANIN B]	12.5 µg/mL (≈ 21.9 µM)	50 µg/mL (≈ 87.6 µM)	12.5 µg/mL (≈ 21.9 µM)	25 µg/mL (≈ 43.8 µM)
CC(=O)O[C@H]1C[C@@H](O)C(C)(C)[C@@H]2C[C@@H](OC(C)=O)[C@]3(C)[C@H](CC[C@@]4(C)[C@@H](c5ccoc5)OC(=O)[C@H]5O[C@@]534)[C@@]12C [3-DEACETYLKHIVORIN]	12.5 µg/mL (≈ 23 µM)	12.5 µg/mL (≈ 23 µM)	12.5 µg/mL (≈ 23 µM)	25 µg/mL (≈ 45.9 µM)
COC(=O)[C@H](O)[C@H]1C(C)(C)C(=O)[C@@H]2C[C@]3(O)[C@@H]4CC(=O)O[C@@H](c5ccoc5)[C@]4(C)CC[C@@H]3[C@@]1(C)C2=O [KHAYANONE]	25 µg/mL (≈ 49.7 µM)	25 µg/mL (≈ 49.7 µM)	> 50 µg/mL	25 µg/mL (≈ 49.7 µM)
CN[C@H](CC(C)C)C(=O)N[C@H]1C(=O)N[C@@H](CC(N)=O)C(=O)N[C@H]2C(=O)N[C@H]3C(=O)N[C@H](C(=O)N[C@H](C(=O)O)c4cc(O)cc(O)c4-c4cc3ccc4O)[C@H](O)c3ccc(c(Cl)c3)Oc3cc2cc(c3O[C@@H]2O[C@H](CO)[C@@H](O)[C@H](O)[C@H]2O[C@H]2C[C@](C)(N)[C@H](O)[C@H](C)O2)Oc2ccc(cc2Cl)[C@H]1O.Cl [VANCOMYCIN HYDROCHLORIDE]	0.78 µg/mL	0.78 µg/mL	25 µg/mL	0.78 µg/mL
C=C1[C@@H]2CC[C@@]3(C)[C@H](c4ccoc4)OC(=O)C[C@]13O[C@H]1CC(=O)OC(C)(C)[C@H]([C@@H](O)C(=O)OC)[C@]12C (relative stereo)	50 µg/mL (≈ 99.5 µM)	25 µg/mL (≈ 49.7 µM)	25 µg/mL (≈ 49.7 µM)	50 µg/mL (≈ 99.5 µM)
COC(=O)[C@H](O)[C@@H]1[C@@]2(C)[C@H]3CC[C@]4(C)C(=CC(=O)O[C@H]4c4ccoc4)[C@]3(O)[C@H]3[C@@H](O)C(=O)[C@@]1(C)C[C@]32OC(C)=O (relative stereo)	> 50 µg/mL	> 50 µg/mL	> 50 µg/mL	> 50 µg/mL
COC(=O)[C@H](O)[C@H]1C(C)(C)[C@H](OC(C)=O)[C@@H]2CC3=C4CC(=O)O[C@@H](c5ccoc5)[C@]4(C)CC[C@@H]3[C@@]1(C)C2=O [SWIETENOLIDE-3-ACETATE]	25 µg/mL (≈ 47.3 µM)	25 µg/mL (≈ 47.3 µM)	25 µg/mL (≈ 47.3 µM)	25 µg/mL (≈ 47.3 µM)
COC(=O)C[C@H]1C(C)(C)[C@H](O)[C@@H]2C=C3[C@H]([C@H](OC(C)=O)C[C@]4(C)[C@H]3CC(=O)O[C@H]4c3ccoc3)[C@@]1(C)C2=O [Swietmanin C]	> 50 µg/mL	> 50 µg/mL	> 50 µg/mL	> 50 µg/mL
CC(=O)O[C@H]1C[C@@H](O)C(C)(C)[C@@H]2C[C@@H](O)[C@]3(C)[C@H](CC[C@@]4(C)[C@@H](c5ccoc5)OC(=O)[C@H]5O[C@@]534)[C@@]12C	> 50 µg/mL	> 50 µg/mL	> 50 µg/mL	> 50 µg/mL
COC(=O)[C@H](O)[C@H]1[C@]2(C)C[C@]3(OC(C)=O)[C@@H]4[C@@](OC)(O[C@]56CC(=O)O[C@@H](c7ccoc7)[C@]5(C)CC[C@H]([C@]13C)[C@@]46O)[C@H]2O (relative stereo)	> 50 µg/mL	> 50 µg/mL		
COC(=O)C[C@H]1[C@@]2(C)C[C@]3(O)O[C@@]4(CC(=O)[C@H]2O)[C@H]2CC(=O)O[C@@H](c5ccoc5)[C@]2(C)CC[C@@H]4[C@]13C	> 50 µg/mL	> 50 µg/mL	> 50 µg/mL	> 50 µg/mL
COC(=O)[C@@H](OC(C)=O)[C@H]1C(C)(C)C(=O)[C@@H]2C=C3[C@@H]4CC(=O)O[C@@H](c5ccoc5)[C@]4(C)CC[C@@H]3[C@@]1(C)C2=O [khayalenoid E]	25 µg/mL (≈ 47.5 µM)	25 µg/mL (≈ 47.5 µM)	25 µg/mL (≈ 47.5 µM)	25 µg/mL (≈ 47.5 µM)
C=C1[C@H]2CC[C@]3(C)[C@H](c4ccoc4)OC(=O)C[C@@]13O[C@H]1CC(=O)OC(C)(C)[C@@H](CC(=O)OC)[C@@]12C [METHYL IVORENSATE]	> 50 µg/mL	> 50 µg/mL	> 50 µg/mL	> 50 µg/mL
CC(=O)O[C@H]1C[C@@H](OC(C)=O)C(C)(C)[C@@H]2CC(=O)[C@]3(C)[C@H](CC[C@@]4(C)[C@@H](c5ccoc5)OC(=O)[C@H]5O[C@]543)[C@@]12C	25 µg/mL (≈ 46.1 µM)	50 µg/mL (≈ 92.1 µM)	25 µg/mL (≈ 46.1 µM)	50 µg/mL (≈ 92.1 µM)
COC(=O)C[C@H]1C(C)(C)[C@H](OC(C)=O)[C@]2(O)C=C3[C@H]([C@H](OC(C)=O)C[C@]4(C)[C@H]3CC(=O)O[C@H]4c3ccoc3)[C@@]1(C)C2=O	25 µg/mL (≈ 42.6 µM)	25 µg/mL (≈ 42.6 µM)	25 µg/mL (≈ 42.6 µM)	25 µg/mL (≈ 42.6 µM)
CC1(C)C(=O)[C@@H]2C[C@@]34O[C@]2(O)[C@]2(COC(=O)C[C@@H]12)[C@H]3CC[C@]1(C)[C@H]4CC(=O)O[C@H]1c1ccoc1 [SENEGANOLIDE]	> 50 µg/mL	> 50 µg/mL	> 50 µg/mL	> 50 µg/mL
CC(=O)O[C@@H]1C[C@H](O)[C@]2(C)[C@H]3CC[C@@]4(C)[C@@H](c5ccoc5)OC(=O)[C@H]5O[C@]54[C@]3(C)[C@H](OC(C)=O)C[C@H]2C1(C)C	12.5 µg/mL (≈ 23 µM)	25 µg/mL (≈ 45.9 µM)	25 µg/mL (≈ 45.9 µM)	25 µg/mL (≈ 45.9 µM)
